doi:10.64898/2025.12.08.692997v2 (biorxiv, 2025)
Where a name gives a salt, the structure may show the parent alone. Read-outs that look alike come from different tables or passages of the source. One block for each molecule: values may come before it.

Legend:
Assay in all cases: biochemical
[1] = molecular target: T1, human EphB2-His ectodomain - human EphrinB2-Fc ectodomain (EphB2-EphrinB2 tetramer) (Homo sapiens, UniProt P29323+P52799); settings: EphrinB2-EphB2 IC50 (Absolute, µM)
[2] = molecular target: T1, human EphB2-His ectodomain - human EphrinB2-Fc ectodomain (EphB2-EphrinB2 tetramer); settings: EphrinB2-EphB2 IC50 (Relative, µM)
[3] = molecular target: T1, human EphB2-His ectodomain - human EphrinB2-Fc ectodomain (EphB2-EphrinB2 tetramer)
[4] = molecular target: T1, human EphB2-His ectodomain - human EphrinB2-Fc ectodomain (EphB2-EphrinB2 tetramer); remark: listed apart in the source

T1 sequence (P52799 28-229): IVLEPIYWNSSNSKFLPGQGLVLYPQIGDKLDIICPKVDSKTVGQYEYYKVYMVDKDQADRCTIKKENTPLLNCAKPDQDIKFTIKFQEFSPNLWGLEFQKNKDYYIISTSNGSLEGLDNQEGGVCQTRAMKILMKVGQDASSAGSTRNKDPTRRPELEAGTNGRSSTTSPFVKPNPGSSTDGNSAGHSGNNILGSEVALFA
T1 sequence (P29323 19-543): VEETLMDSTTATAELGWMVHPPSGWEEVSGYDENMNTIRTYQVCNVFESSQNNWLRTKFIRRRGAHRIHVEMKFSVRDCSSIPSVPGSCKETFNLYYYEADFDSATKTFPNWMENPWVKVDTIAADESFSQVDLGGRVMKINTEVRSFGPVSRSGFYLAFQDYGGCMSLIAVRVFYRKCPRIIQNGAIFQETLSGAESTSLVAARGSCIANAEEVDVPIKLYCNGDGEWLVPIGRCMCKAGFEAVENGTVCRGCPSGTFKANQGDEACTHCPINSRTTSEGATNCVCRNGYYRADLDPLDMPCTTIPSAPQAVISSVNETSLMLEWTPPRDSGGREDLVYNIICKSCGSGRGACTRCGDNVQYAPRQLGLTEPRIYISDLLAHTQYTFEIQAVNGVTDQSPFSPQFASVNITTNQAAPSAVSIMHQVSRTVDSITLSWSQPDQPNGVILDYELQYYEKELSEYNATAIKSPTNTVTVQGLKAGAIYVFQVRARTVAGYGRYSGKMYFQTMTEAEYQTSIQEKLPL

SMILES: Oc1c(Br)cc(CN2CCOCC2)c2cccnc12 [A20 . 2 HCl, 4-((7-bromo-8-hydroxyquinolin-1-ium-5-yl)methyl)morpholin-4-ium chloride]
IC50 [1]: 0.78 µM

SMILES: Oc1ccc(CN2CCOCC2)c2cccnc12 [A19 . 2 HCl, 4-((8-hydroxyquinolin-1-ium-5-yl)methyl)morpholin-4-ium chloride]
IC50 [1]: > 6.4 µM

SMILES: Cc1ccc2c(CN3CCN(c4ccc(Br)cc4)CC3)ccc(O)c2n1 [2-MeQPB4 . 2 HCl, 5-((4-(4-bromophenyl)piperazin-1-ium-1-yl)methyl)-8-hydroxy-2-methylquinolin-1-ium chloride]
IC50 [1]: > 1.6 µM | IC50 [2]: > 1.6 µM

SMILES: O=[N+]([O-])c1cc(CN2CCOCC2)c2cccnc2c1O [A19-NO2, 5-(morpholinomethyl)-7-nitroquinolin-8-ol]
IC50 [1]: > 3.2 µM | IC50 [2]: > 3.2 µM

SMILES: CN(C)C(=O)Oc1c(Br)cc(Cl)c2cccnc12 [compound 8, 7-bromo-5-chloro-8-quinolinyl dimethylcarbamate]
IC50 [3]: > 100 µM

SMILES: CN(C(=O)Oc1c(Cl)cc(Cl)c2cccnc12)c1ccccc1 [compound 3, 5,7-dichloro-8-quinolinyl methyl(phenyl)carbamate]
IC50 [3]: > 100 µM

SMILES: Cc1ccc2c(CN3CCOCC3)cc(Br)c(O)c2n1 [2-MeA20, 7-bromo-2-methyl-5-(morpholinomethyl)quinolin-8-ol]
IC50 [1]: > 3.2 µM

SMILES: CN(C(=O)Oc1cccc2cccnc12)c1ccccc1 [compound 2, 8-quinolinyl methyl(phenyl)carbamate]
IC50 [3]: > 100 µM

SMILES: Oc1ccc(CN2CCN(c3ccc(Br)cn3)CC2)c2cccnc12 [QPP. 2 HCl, 5-((4-(5-bromopyridin-2-yl)piperazin-1-ium-1-yl)methyl)-8-hydroxyquinolin-1-ium chloride]
IC50 [1]: > 3.2 µM

SMILES: COc1ccc2[nH]cc(C(=O)N3CCN(c4ccccc4OC)CC3)c2c1 [IMP2, (5-methoxy-1H-indol-3-yl)(4-(2-methoxyphenyl)piperazin-1-yl)methanone]
IC50 [1]: > 1.6 µM | IC50 [2]: > 1.6 µM

SMILES: Cc1ccc2c(CN3CCN(c4ccc(Br)cc4)CC3)ccc(O)c2n1 [2-MeQPB4, 5-((4-(4-bromophenyl)piperazin-1-yl)methyl)-2-methylquinolin-8-ol]
IC50 [1]: > 3.2 µM | IC50 [2]: > 3.2 µM

SMILES: CN(C)C(=O)Oc1c(I)cc(Cl)c2cccnc12 [compound 11, 5-chloro-7-iodo-8-quinolinyl dimethylcarbamate]
IC50 [3]: > 100 µM

SMILES: O=[N+]([O-])c1cc(CN2CCS(=O)(=O)CC2)c2cccnc2c1O [QTM-NO2, 4-((8-hydroxy-7-nitroquinolin-5-yl)methyl)thiomorpholine 1,1-dioxide]
IC50 [1]: > 3.2 µM

SMILES: O=S1(=O)CCN(Cc2cc(I)c(O)c3ncccc23)CC1 [QTM-I . 2 HCl, 4-((8-hydroxy-7-iodoquinolin-1-ium-5-yl)methyl)thiomorpholin-4-ium 1,1-dioxide chloride]
IC50 [1]: > 1.6 µM

SMILES: OCc1ccc2c(CN3CCOCC3)cc(Br)c(O)c2n1 [2OH-A20, 7-bromo-2-(hydroxymethyl)-5-(morpholinomethyl)quinolin-8-ol]
IC50 [1]: > 3.2 µM

SMILES: COc1ccc2[nH]cc(C(=O)N3CCOCC3)c2c1 [IM, (5-methoxy-1H-indol-3-yl)(morpholino)methanone]
IC50 [1]: > 3.2 µM | IC50 [2]: > 3.2 µM

SMILES: O=C(Cc1ccccc1)Nc1ccc(N2CCN(Cc3cc(Br)c(O)c4ncccc34)CC2)cc1 [BQPA-PAc, N-(4-(4-((7-bromo-8-hydroxyquinolin-5-yl)methyl)piperazin-1-yl)phenyl)-2-phenylacetamide]
IC50 [1]: > 3.2 µM | IC50 [2]: > 3.2 µM

SMILES: COc1ccc2[nH]cc(C(=O)N3CCN(c4ccc(Br)cc4)CC3)c2c1 [IPB4, (4-(4-bromophenyl)piperazin-1-yl)(5-methoxy-1H-indol-3-yl)methanone]
IC50 [1]: > 1.6 µM | IC50 [2]: > 1.6 µM

SMILES: OCc1ccc2c(CN3CCOCC3)ccc(O)c2n1 [2OH-A19, 2-(hydroxymethyl)-5-(morpholinomethyl)quinolin-8-ol]
IC50 [1]: > 3.2 µM | IC50 [2]: > 3.2 µM

SMILES: CCN(CC)C(=O)Oc1c(Cl)cc(Cl)c2cccnc12 [compound 6, 5,7-dichloro-8-quinolinyl diethylcarbamate]
IC50 [3]: > 100 µM

SMILES: O=S1(=O)CCN(Cc2cc(Br)c(O)c3ncccc23)CC1 [QTM-Br . 2 HCl, 4-((7-bromo-8-hydroxyquinolin-1-ium-5-yl)methyl)thiomorpholin-4-ium 1,1-dioxide chloride]
IC50 [2]: 0.62 µM

SMILES: O=[N+]([O-])c1cc(CN2CCOCC2)c2cccnc2c1O [A19-NO2 . 2 HCl, 4-((8-hydroxy-7-nitroquinolin-1-ium-5-yl)methyl)morpholin-4-ium chloride]
IC50 [1]: > 1.6 µM | IC50 [2]: > 1.6 µM

SMILES: Cc1ccc(N(C)C(=O)Oc2c(Br)cc(Br)c3ccc(C)nc23)cc1 [compound 13, 5,7-dibromo-2-methylquinolin-8-yl methyl(4-methylphenyl)carbamate]
IC50 [3]: > 100 µM

The next lines start with the values.

IC50 [1]: > 1.6 µM | IC50 [2]: > 1.6 µM
SMILES: Oc1ccc(CN2CCN(c3ccccc3)CC2)c2cccnc12 [QPPh . 2HCl, 8-hydroxy-5-((4-phenylpiperazin-1-ium-1-yl)methyl)quinolin-1-ium chloride]

IC50 [3]: > 100 µM
SMILES: O=C(Oc1c(Cl)cc(Cl)c2cccnc12)N1CCOCC1 [compound 14, 5,7-dichloro-8-quinolinyl 4-morpholinecarboxylate]

IC50 [4]: > 100 µM
SMILES: O=C(Oc1cccc2cccnc12)c1ccc(Br)cc1 [compound 1, 8-quinolinyl 4-bromobenzoate]

IC50 [3]: > 100 µM
SMILES: CCN(CC)C(=O)Oc1c(Br)cc(Cl)c2cccnc12 [compound 7, 7-bromo-5-chloro-8-quinolinyl diethylcarbamate]

IC50 [3]: > 100 µM
SMILES: O=C(Oc1c(Br)cc(Cl)c2cccnc12)N1CCOCC1 [compound 15, 7-bromo-5-chloro-8-quinolinyl 4-morpholinecarboxylate]

IC50 [4]: > 100 µM
SMILES: O=C(Oc1ccc(Cl)c2cccnc12)c1cccc(Cl)c1 [compound 8, 5-chloro-8-quinolinyl 3-chlorobenzoate]

IC50 [1]: > 1.6 µM
SMILES: Oc1ccc(CN2CCN(c3ccc(I)cc3)CC2)c2cccnc12 [QPI4 . 2HCl, 8-hydroxy-5-((4-(4-iodophenyl)piperazin-1-ium-1-yl)methyl)quinolin-1-ium chloride]

IC50 [1]: > 1.6 µM
SMILES: COc1ccccc1N1CCN(Cc2cc(Br)c(O)c3ncccc23)CC1 [3511-0013, 7-bromo-5-((4-(2-methoxyphenyl)piperazin-1-yl)methyl)quinolin-8-ol]

IC50 [1]: > 3.2 µM
SMILES: CC(=O)Nc1ccc(N2CCN(Cc3ccc(O)c4ncccc34)CC2)cc1 [QPA-Ac, N-(4-(4-((8-hydroxyquinolin-5-yl)methyl)piperazin-1-yl)phenyl)acetamide]

IC50 [1]: > 3.2 µM
SMILES: COc1ccccc1N1CCN(Cc2ccc(O)c3ncccc23)CC1 [3511-0013-BF, 5-((4-(2-methoxyphenyl)piperazin-1-yl)methyl)quinolin-8-ol]

IC50 [4]: > 100 µM
SMILES: O=C(Oc1ccc(Cl)c2cccnc12)c1cccc(Br)c1 [compound 7, 5-chloro-8-quinolinyl 3-bromobenzoate]

IC50 [1]: > 1.6 µM
SMILES: Oc1ccc(CN2CCN(c3ccc(Br)cc3)CC2)c2cccnc12 [QPB4 . 2 HCl, 5-((4-(4-bromophenyl)piperazin-1-ium-1-yl)methyl)-8-hydroxyquinolin-1-ium chloride]

IC50 [3]: > 100 µM
SMILES: CCN(CC)C(=O)Oc1c(I)cc(Cl)c2cccnc12 [compound 10, 5-chloro-7-iodo-8-quinolinyl diethylcarbamate]

IC50 [1]: > 1.6 µM | IC50 [2]: > 1.6 µM
SMILES: Oc1ccc(CN2CCN(Cc3ccc(C(F)(F)F)cc3)CC2)c2cccnc12 [QPCF34-Bn, 5-((4-(4-(trifluoromethyl)benzyl)piperazin-1-yl)methyl)quinolin-8-ol]

IC50 [4]: > 100 µM
SMILES: O=C(Oc1ccc(Cl)c2cccnc12)c1ccc(Cl)c(Cl)c1 [compound 10, 5-chloro-8-quinolinyl 3,4-dichlorobenzoate]

IC50 [4]: > 100 µM
SMILES: Cc1ccc(C(=O)Oc2c(Cl)cc(Cl)c3cccnc23)cc1C [compound 17, 5,7-dichloro-8-quinolinyl 3,4-dimethylbenzoate]

IC50 [4]: > 100 µM
SMILES: COc1ccc(C(=O)Oc2cccc3cccnc23)cc1Cl [compound 13, 8-quinolinyl 3-chloro-4-methoxybenzoate]

IC50 [4]: > 100 µM
SMILES: COc1cc(OC)cc(C(=O)Oc2ccc(Cl)c3cccnc23)c1 [compound 15, 5-chloro-8-quinolinyl 3,5-dimethoxybenzoate]

IC50 [4]: > 100 µM
SMILES: COc1cc(C(=O)Oc2ccc(Cl)c3cccnc23)cc(OC)c1OC [compound 14, 5-chloro-8-quinolinyl 3,4,5-trimethoxybenzoate]

IC50 [4]: > 100 µM
SMILES: COc1ccc(C(=O)Oc2ccc(Cl)c3cccnc23)cc1 [compound 16, 5-chloro-8-quinolinyl 4-methoxybenzoate]

IC50 [1]: > 3.2 µM
SMILES: Oc1ccc(CN2CCN(c3ccccc3)CC2)c2cccnc12 [QPPh, 5-((4-phenylpiperazin-1-yl)methyl)quinolin-8-ol]

IC50 [1]: > 3.2 µM
SMILES: Oc1c(Br)cc(CN2CCN(Cc3ccc(Br)cc3)CC2)c2cccnc12 [BQPB4-Bn, 7-bromo-5-((4-(4-bromobenzyl)piperazin-1-yl)methyl)quinolin-8-ol]

IC50 [1]: > 1.6 µM | IC50 [2]: > 1.6 µM
SMILES: Oc1ccc(CN2CCN(c3ccc(F)cc3F)CC2)c2cccnc12 [QPDF, 5-((4-(2,4-difluorophenyl)piperazin-1-yl)methyl)quinolin-8-ol]

IC50 [4]: > 100 µM
SMILES: Cc1cccc(C(=O)Oc2ccc(Cl)c3cccnc23)c1 [compound 18, 5-chloro-8-quinolinyl 3-methylbenzoate]

IC50 [3]: > 100 µM
SMILES: O=C(Oc1c(I)cc(Cl)c2cccnc12)N1CCCCC1 [compound 9, 5-chloro-7-iodo-8-quinolinyl 1-piperidinecarboxylate]
